# Reference: US7825093B2 (priority 2006, dated 2010)
# Entries after “also recorded” stand apart in the source; their conditions may differ.
# Tests used:
# [1] = system: CD40L on T cells in human whole blood; type: cell-based
# [2] = molecular target: Kv1.3 transfected HEK 293 cells (Homo sapiens, UniProt P22001); test: Whole cell immunoassay (ELISA) on fixed HEK 293 cells overexpressing Kv1.3; type: binding
# Method: Our peptibody reagent can be a useful and convenient tool for monitoring Kv1.3 channel expression in patients and have utility in diagnostic applications. The procedure shown in FIG. 34A and FIG. 34B follows.
# FIG. 34A. A whole cell immunoassay was performed to show binding of intact Fc-L10-ShK[1-35] to Kv1.3 transfected HEK 293 cells (BioFocus plc, Cambridge, UK). Parent HEK 293 cells or HEK Kv1.3 cells were plated at 3×10e4 cells/well in poly-D-Lysine coated ninety-six well plates (#35-4461; Becton-Dickinson, Bedford, Mass.). Cells were fixed with formalin (Sigma HT50-1-1 Formalin solution, diluted 1:1 with PBS/0.5% BSA before use) by removing cell growth medium, adding 0.2 ml/well formalin solution and incubating at room temperature for 25 minutes and then washing one time with 100 μl/well of PBS/0.5% BSA. Wells were blocked by addition of 0.3 ml/well of BSA blocker (50-61-00; KPL 10% BSA Diluent/Blocking Solution, diluted 1:1 with PBS; KPL, Gaithersburg, Md.) followed by incubation at room temperature, with shaking, for 3 hr. Plates were washed 2 times with 1×KP Wash Buffer (50-63-00; KPL). […] Absorbance was read at 450 nm on a Molecular Devices SpectroMax 340 (Sunnyvale, Calif.).
# FIG. 34B. […] Absorbances were read at 405 nm after stopping reactions by addition of 0.1 ml/well of 1% SDS.
# human PBMCs [3] = type: cell-based
# [4] = molecular target: HEK 293 cells overexpressing human Kv1.3 (Homo sapiens, UniProt P22001); test: Immunohistochemistry analysis of binding to HEK 293 cells overexpressing human Kv1.3; conditions: 5 μg/ml
# Chain of HEK 293 cells overexpressing human Kv1.3 (P22001 whole entry): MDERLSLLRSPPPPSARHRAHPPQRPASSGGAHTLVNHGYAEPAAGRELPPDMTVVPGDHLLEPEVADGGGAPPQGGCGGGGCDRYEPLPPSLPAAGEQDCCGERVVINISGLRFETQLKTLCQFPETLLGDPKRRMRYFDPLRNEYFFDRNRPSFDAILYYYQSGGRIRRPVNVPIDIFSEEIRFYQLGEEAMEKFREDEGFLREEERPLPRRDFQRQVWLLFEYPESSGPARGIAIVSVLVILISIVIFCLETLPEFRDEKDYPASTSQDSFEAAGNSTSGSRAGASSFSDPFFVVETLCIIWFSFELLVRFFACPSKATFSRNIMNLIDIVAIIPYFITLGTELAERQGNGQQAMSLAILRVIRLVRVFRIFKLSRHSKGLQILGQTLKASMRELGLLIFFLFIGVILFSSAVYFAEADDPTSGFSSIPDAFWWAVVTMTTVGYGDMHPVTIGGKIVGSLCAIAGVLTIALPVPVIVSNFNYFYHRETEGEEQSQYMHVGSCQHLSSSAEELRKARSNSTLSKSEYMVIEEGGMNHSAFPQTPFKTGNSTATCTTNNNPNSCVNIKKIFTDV
# Method: Immunohistochemistry analysis of Fc-L10-ShK[1-35] binding to HEK 293 cells overexpressing human Kv1.3. HEK 293 cells overexpressing human Kv1.3 (HEK Kv1.3) were obtained from BioFocus plc (Cambridge, UK) and maintained per manufacturer's recommendation. The parental HEK 293 cell line was used as a control. Cells were plated on Poly-D-Lysine 24 well plates (#35-4414; Becton-Dickinson, Bedford, Mass.) and allowed to grow to approximately 70% confluence. HEK KV1.3 were plated at 0.5×10e5 cells/well in 1 ml/well of medium. HEK 293 cells were plated at a density of 1.5×10e5 cells/well in 1 ml/well of medium. Before staining, cells were fixed with formalin (Sigma HT50-1-1 Formalin solution, diluted 1:1 with PBS/0.5% BSA before use) by removing cell growth medium, adding 0.2 ml/well formalin solution and incubating at room temperature for ten minutes. Cells were stained by incubating with 0.2 ml/well of 5 μg/ml Fc-L10-ShK[1-35] in PBS/BSA for 30′ at room temperature. Fc-L10-ShK[1-35] was aspirated and then the cells were washed one time with PBS/0.5% BSA. Detection antibody (Goat F(ab)2 anti-human IgG-phycoerythrin; Southern Biotech Associates, Birmingham, Ala.) was added to the wells at 5 μg/ml in PBS/0.5% BSA and incubated for 30′ at room temperature. Wash cells once with PBS/0.5% BSA and examine using confocal microscopy (LSM 510 Meta Confocal Microscope; Carl Zeiss AG, Germany). […]
# [5] = system: IL-2R on T cells in human whole blood; type: cell-based
# human PBMCs [6] = type: cell-based; remark: listed apart in the source
# human PBMCs [7] = type: cell-based; remark: listed apart in the source
# [8] = system: IL-2 production in human whole blood
# [9] = system: IFN-g production in human whole blood; type: cell-based
# AT-EAE model = system: AT-EAE model; parameters: species or system Lewis rats; conditions: rat, in vivo, sc
# human Kv1.3 channel = human Kv1.3 channel (Homo sapiens, UniProt P22001); type: cell-based
# Chain of human Kv1.3 channel (P22001 whole entry): as above
# [10] = rat, in vivo, iv
# Chain of Kv1.3 transfected HEK 293 cells (P22001 whole entry): as above
Compound,thapsigargin-induced upregulation of CD40L on T cells (in words) [1],binding to fixed cells that overexpress Kv1.3 [2],inhibition of IFNγ production (human PBMCs [3]),staining of HEK 293 cells stably transfected with human Kv1.3 [4],thapsigargin-induced upregulation of the IL-2R on T cells (in words) [5],inhibition of IFNg production (human PBMCs [6]),inhibition of T cell proliferation (human PBMCs [7]),thapsigargin-induced IL-2 production (in words) [8],thapsigargin-induced IFN-g production (in words) [9],average body weight lost (AT-EAE model),disease severity and survival (in words) (AT-EAE model),onset of disease (AT-EAE model),block of human Kv1.3 current (in words) (human Kv1.3 channel),time with significant suppression of Kv1.3 current (<70 POC) by 5% serum Test solutions [10]
Fc-L10-ShK[1-35]: Fc region of human IgG1 fused via L10 linker to Kv1.3 inhibitor peptide ShK[1-35],suppressed,dose-dependent increase in response; also recorded: high affinity binding to its target,complete inhibition of the response,stains HEK 293 cells stably transfected with human Kv1.3,suppressed,nearly complete inhibition,blocked T cell proliferation; also recorded: potently inhibits proliferation of T cells in a dose-dependent manner,,,,,,,
"CC[C@H](C)[C@@H]1NC(=O)[C@@H](NC(=O)[C@H](CO)NC(=O)[C@@H](N)CCCNC(=N)N)CSSC[C@@H](C(=O)O)NC(=O)[C@H]([C@@H](C)O)NC(=O)CNC(=O)[C@@H]2CSSC[C@@H]3NC(=O)[C@H](CCC(N)=O)NC(=O)[C@H](Cc4ccccc4)NC(=O)[C@H](C)NC(=O)[C@H]([C@@H](C)O)NC(=O)[C@H](CSSC[C@H](NC(=O)[C@H](Cc4ccccc4)NC(=O)[C@H](CO)NC(=O)[C@H](CC(C)C)NC(=O)[C@H](CCCNC(=N)N)NC(=O)[C@H](Cc4ccc(O)cc4)NC(=O)[C@H](CCCCN)NC(=O)[C@H](CCSC)NC(=O)[C@H](CO)NC(=O)[C@H](Cc4cnc[nH]4)NC(=O)[C@H](CCCCN)NC3=O)C(=O)N[C@@H](CCCNC(=N)N)C(=O)N[C@@H](CCCCN)C(=O)N[C@@H]([C@@H](C)O)C(=O)N2)NC(=O)[C@H](CCCNC(=N)N)NC(=O)[C@H](CO)NC(=O)[C@H](CCCCN)NC(=O)[C@@H]2CCCN2C(=O)[C@H]([C@@H](C)CC)NC(=O)[C@H]([C@@H](C)O)NC(=O)[C@H](CC(=O)O)NC1=O [ShK, reference compound]",suppressed,,only a partial inhibition,,suppressed,only partial inhibition,,suppressed,suppressed,30 g,developed severe disease and died,4 days,potently block Kv1.3,≤ 1 h
